target: T1, human CD73 (Homo sapiens, UniProt P21589); test: Inhibition of Ecto-5′-nucleotidase (CD73) activity in CHO-CD73 cells, phosphate release from AMP; format: cell-based; conditions: CHO-K1 cells stably transfected with human CD73; 25 μM AMP; 50 minutes, 37° C.; read-out: Potency: CD73 IC50
T1 sequence (P21589 27-549): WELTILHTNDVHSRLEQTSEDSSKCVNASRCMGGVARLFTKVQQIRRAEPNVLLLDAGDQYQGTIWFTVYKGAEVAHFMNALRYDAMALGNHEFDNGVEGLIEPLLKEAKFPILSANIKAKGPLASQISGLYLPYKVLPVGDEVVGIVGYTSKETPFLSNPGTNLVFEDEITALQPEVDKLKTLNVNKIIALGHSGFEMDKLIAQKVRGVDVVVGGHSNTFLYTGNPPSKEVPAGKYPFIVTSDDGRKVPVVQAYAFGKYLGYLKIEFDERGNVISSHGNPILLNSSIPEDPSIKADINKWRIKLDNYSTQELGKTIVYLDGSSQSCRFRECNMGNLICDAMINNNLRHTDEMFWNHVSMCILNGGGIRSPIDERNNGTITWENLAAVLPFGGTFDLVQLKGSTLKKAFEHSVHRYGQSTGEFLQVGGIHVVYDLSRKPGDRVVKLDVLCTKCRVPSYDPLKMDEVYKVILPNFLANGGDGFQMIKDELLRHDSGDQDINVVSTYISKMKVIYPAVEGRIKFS

Row | SMILES | IC50
1 | Oc1cccc(-n2nnc3c(Cl)cc(-c4ccnn4Cc4ccccc4)cc32)c1 [Example 9, 3-[6-(1-Benzyl-1H-pyrazol-5-yl)-4-chloro-1H-1,2,3-benzotriazol-1-yl]phenol] | < 100 nM
2 | Clc1ccc(Cn2nccc2-c2cc(Cl)c3nnn(-c4ccc5cn[nH]c5c4)c3c2)cc1 [Example 44] | < 100 nM
3 | Clc1cc(-c2ccnn2Cc2ccccn2)cc2c1nnn2-c1ccc2cn[nH]c2c1 [Example 45] | 100 to 1000 nM
4 | FC(F)(F)Oc1ccc(Cn2nccc2-c2cc(Cl)c3nnn(-c4ccc5cn[nH]c5c4)c3c2)cc1 [Example 46] | < 100 nM
5 | c1cc(-c2ccc3nnn(-c4ccc5cn[nH]c5c4)c3c2)n(CC2CC2)n1 [Example 47] | > 1000 nM
6 | N#Cc1cccc(Cn2nccc2-c2ccc3nnn(-c4ccc5cn[nH]c5c4)c3c2)c1 [Example 48] | > 1000 nM
7 | CC(C)c1ccc(Cn2nccc2-c2cc(Cl)c3nnn(-c4ccc5cn[nH]c5c4)c3c2)cc1 [Example 51] | 100 to 1000 nM
8 | Clc1ccccc1Cn1nccc1-c1cc(Cl)c2nnn(-c3ccc4cn[nH]c4c3)c2c1 [Example 52] | < 100 nM
9 | FC(F)(F)Oc1ccccc1Cn1nccc1-c1cc(Cl)c2nnn(-c3ccc4cn[nH]c4c3)c2c1 [Example 53] | 100 to 1000 nM
10 | Cc1ccc(Cn2nccc2-c2cc(Cl)c3nnn(-c4ccc5cn[nH]c5c4)c3c2)cc1 [Example 54] | < 100 nM
11 | COc1ccc(Cn2nccc2-c2ccc3nnn(-c4ccc5cn[nH]c5c4)c3c2)cc1 [Example 55] | 100 to 1000 nM
12 | Cc1cnn(Cc2ccc(Cl)cc2)c1-c1cc(Cl)c2nnn(-c3ccc4cn[nH]c4c3)c2c1 [Example 56] | 100 to 1000 nM
13 | Fc1cc(Cn2nccc2-c2ccc3nnn(-c4ccc5cn[nH]c5c4)c3c2)ccc1Cl [Example 58] | < 100 nM
14 | Clc1ccc(Cn2nccc2-c2cc(Cl)c3nnn(-c4ccc5cn[nH]c5c4)c3c2)c(Cl)c1 [Example 59] | < 100 nM
15 | Clc1cccnc1Cn1nccc1-c1cc(Cl)c2nnn(-c3ccc4cn[nH]c4c3)c2c1 [Example 61] | > 1000 nM
16 | FC(F)c1ccc(Cn2nccc2-c2cc(Cl)c3nnn(-c4ccc5cn[nH]c5c4)c3c2)cc1 [Example 63] | < 100 nM
17 | Fc1cc(-c2ccnn2Cc2ccc(Cl)cc2)cc2c1nnn2-c1ccc2cn[nH]c2c1 [Example 64] | < 100 nM
18 | Fc1cc(-c2ccnn2Cc2ccccc2Cl)cc2c1nnn2-c1ccc2cn[nH]c2c1 [Example 65] | 100 to 1000 nM
19 | CCc1ccc(Cn2nccc2-c2cc(Cl)c3nnn(-c4ccc5cn[nH]c5c4)c3c2)cc1 [Example 68] | < 100 nM

Row | SMILES | IC50
20 | FC(F)(F)c1ccc(Cn2nccc2-c2cc(Cl)c3nnn(-c4ccc5cn[nH]c5c4)c3c2)cc1 [Example 69] | 100 to 1000 nM
21 | CC(c1ccccc1)n1nccc1-c1cc(Cl)c2nnn(-c3ccc4cn[nH]c4c3)c2c1 (centres unmarked) [Example 70] | 100 to 1000 nM
22 | CC(c1ccccc1)n1nccc1-c1cc(F)c2nnn(-c3ccc4cn[nH]c4c3)c2c1 (centres unmarked) [Example 71] | > 1000 nM
23 | CC(c1ccccc1)n1nccc1-c1ccc2nnn(-c3ccc4cn[nH]c4c3)c2c1 (centres unmarked) [Example 72] | > 1000 nM
24 | Fc1ccc(Cn2nccc2-c2cc(Cl)c3nnn(-c4ccc5cn[nH]c5c4)c3c2)nc1 [Example 73] | < 100 nM
25 | Cc1cnc(Cn2nccc2-c2cc(Cl)c3nnn(-c4ccc5cn[nH]c5c4)c3c2)c(F)c1 [Example 74] | 100 to 1000 nM
26 | Fc1cc(-c2ccnn2Cc2ccc(Cl)cc2Cl)cc2c1nnn2-c1ccc2cn[nH]c2c1 [Example 75] | < 100 nM
27 | Fc1cc(Cl)ccc1Cn1nccc1-c1cc(F)c2nnn(-c3ccc4cn[nH]c4c3)c2c1 [Example 76] | < 100 nM
28 | Clc1cnc(Cn2nccc2-c2ccc3nnn(-c4ccc5cn[nH]c5c4)c3c2)c(Cl)c1 [Example 79] | 100 to 1000 nM
29 | Clc1cnc(Cn2nccc2-c2cc(Cl)c3nnn(-c4ccc5cn[nH]c5c4)c3c2)c(Cl)c1 [Example 80] | 100 to 1000 nM
30 | Fc1cnc(Cn2nccc2-c2cc(Cl)c3nnn(-c4ccc5cn[nH]c5c4)c3c2)c(Cl)c1 [Example 81] | 100 to 1000 nM
31 | Fc1cc(Cn2nccc2-c2cc(Cl)c3nnn(-c4ccc5cn[nH]c5c4)c3c2)ccc1Cl [Example 82] | < 100 nM
32 | Fc1cc(Cl)ccc1Cn1nccc1-c1cc(Cl)c2nnn(-c3ccc4cn[nH]c4c3)c2c1 [Example 83] | < 100 nM
33 | Cc1ccc(Cn2nccc2-c2cc(Cl)c3nnn(-c4ccc5cn[nH]c5c4)c3c2)nc1 [Example 84] | 100 to 1000 nM
34 | Fc1cc(-c2ccnn2Cc2ccccn2)cc2c1nnn2-c1ccc2cn[nH]c2c1 [Example 85] | 100 to 1000 nM
35 | Cc1ccc(Cn2nccc2-c2cc(F)c3nnn(-c4ccc5cn[nH]c5c4)c3c2)nc1 [Example 86] | 100 to 1000 nM
36 | Cc1cnc(Cn2nccc2-c2cc(F)c3nnn(-c4ccc5cn[nH]c5c4)c3c2)c(F)c1 [Example 87] | > 1000 nM
37 | Cc1cc(F)cnc1Cn1nccc1-c1cc(F)c2nnn(-c3ccc4cn[nH]c4c3)c2c1 [Example 88] | > 1000 nM
38 | Cc1ccc(Cn2nccc2-c2cc(Cl)c3nnn(-c4ccc5cn[nH]c5c4)c3c2)c(Cl)c1 [Example 89] | < 100 nM

Row | SMILES | IC50
39 | Brc1ccc(Cn2nccc2-c2ccc3nnn(-c4ccc5cn[nH]c5c4)c3c2)cc1 [Example 90] | 100 to 1000 nM
40 | Fc1cc(-c2ccnn2Cc2ccc(C(F)F)cc2)cc2c1nnn2-c1ccc2cn[nH]c2c1 [Example 91] | 100 to 1000 nM
41 | CC(c1ccc(Br)cn1)n1nccc1-c1ccc2nnn(-c3ccc4cn[nH]c4c3)c2c1 (centres unmarked) [Example 92] | 100 to 1000 nM
42 | c1cc(-c2ccc3nnn(-c4ccc5cn[nH]c5c4)c3c2)n(CC2CCCCO2)n1 (centres unmarked) [Example 93] | > 1000 nM
43 | Clc1cc(-c2ccnn2CC2CCCCO2)cc2c1nnn2-c1ccc2cn[nH]c2c1 (centres unmarked) [Example 94] | 100 to 1000 nM
44 | Cc1cc(Cl)ccc1Cn1nccc1-c1cc(F)c2nnn(-c3ccc4cn[nH]c4c3)c2c1 [Example 95] | < 100 nM
45 | Cc1cc(Cl)ccc1Cn1nccc1-c1cc(Cl)c2nnn(-c3ccc4cn[nH]c4c3)c2c1 [Example 96] | < 100 nM
46 | Cc1ccc(Cn2nccc2-c2cc(F)c3nnn(-c4ccc5cn[nH]c5c4)c3c2)c(Cl)c1 [Example 97] | < 100 nM
47 | Fc1cccnc1Cn1nccc1-c1ccc2nnn(-c3ccc4cn[nH]c4c3)c2c1 [Example 98] | > 1000 nM
48 | CC(c1ccccn1)n1nccc1-c1cc(Cl)c2nnn(-c3ccc4cn[nH]c4c3)c2c1 (centres unmarked) [Example 99] | > 1000 nM
49 | Cc1ccc(Cn2nccc2-c2cc(F)c3nnn(-c4ccc5cn[nH]c5c4)c3c2)cc1 [Example 100] | 100 to 1000 nM
50 | Fc1cc(-c2ccnn2Cc2ccc(Cl)cn2)cc2c1nnn2-c1ccc2cn[nH]c2c1 [Example 101] | < 100 nM
51 | FC(F)(F)c1ccccc1Cn1nccc1-c1cc(Cl)c2nnn(-c3ccc4cn[nH]c4c3)c2c1 [Example 102] | 100 to 1000 nM
52 | Fc1cc(-c2ccnn2Cc2ccccc2C(F)(F)F)cc2c1nnn2-c1ccc2cn[nH]c2c1 [Example 103] | 100 to 1000 nM
53 | Fc1cc(Cl)cnc1Cn1nccc1-c1cc(Cl)c2nnn(-c3ccc4cn[nH]c4c3)c2c1 [Example 104] | 100 to 1000 nM
54 | N#Cc1ccc(Cn2nccc2-c2cc(Cl)c3nnn(-c4ccc5cn[nH]c5c4)c3c2)nc1 [Example 106] | 100 to 1000 nM
55 | N#Cc1ccc(Cn2nccc2-c2cc(F)c3nnn(-c4ccc5cn[nH]c5c4)c3c2)nc1 [Example 107] | 100 to 1000 nM
56 | FC(F)(F)c1ccc(Cn2nccc2-c2cc(Cl)c3nnn(-c4ccc5cn[nH]c5c4)c3c2)nc1 [Example 108] | 100 to 1000 nM

— patent US11931343B2 (ARCUS BIOSCIENCES, INC., priority 2018, dated 2024)
